In patent publication US10669272B2, “Substituted naphthyridinone compounds useful as T cell activators” (BRISTOL-MYERS SQUIBB COMPANY, priority 2018, dated 2020):
Like-named read-outs stand apart in the source and are kept apart here.

How the values were obtained:
[1] = molecular target: T1, human DGKα (Homo sapiens, UniProt P23743); test: DGKα LIPGLO assay (extruded liposome substrate), in vitro DGK inhibition; type: biochemical; conditions: DGKα liposome (LIPGLO) assay; read-out: DGKa LIPGLO IC50
T1 construct: TVMV protease cleavage site (C); Hexa-His (C); made in house; host or cells: Sf9 insect cells (baculovirus, Bac-to-Bac)
T1 sequence (P23743 with tags, fused parts or gaps): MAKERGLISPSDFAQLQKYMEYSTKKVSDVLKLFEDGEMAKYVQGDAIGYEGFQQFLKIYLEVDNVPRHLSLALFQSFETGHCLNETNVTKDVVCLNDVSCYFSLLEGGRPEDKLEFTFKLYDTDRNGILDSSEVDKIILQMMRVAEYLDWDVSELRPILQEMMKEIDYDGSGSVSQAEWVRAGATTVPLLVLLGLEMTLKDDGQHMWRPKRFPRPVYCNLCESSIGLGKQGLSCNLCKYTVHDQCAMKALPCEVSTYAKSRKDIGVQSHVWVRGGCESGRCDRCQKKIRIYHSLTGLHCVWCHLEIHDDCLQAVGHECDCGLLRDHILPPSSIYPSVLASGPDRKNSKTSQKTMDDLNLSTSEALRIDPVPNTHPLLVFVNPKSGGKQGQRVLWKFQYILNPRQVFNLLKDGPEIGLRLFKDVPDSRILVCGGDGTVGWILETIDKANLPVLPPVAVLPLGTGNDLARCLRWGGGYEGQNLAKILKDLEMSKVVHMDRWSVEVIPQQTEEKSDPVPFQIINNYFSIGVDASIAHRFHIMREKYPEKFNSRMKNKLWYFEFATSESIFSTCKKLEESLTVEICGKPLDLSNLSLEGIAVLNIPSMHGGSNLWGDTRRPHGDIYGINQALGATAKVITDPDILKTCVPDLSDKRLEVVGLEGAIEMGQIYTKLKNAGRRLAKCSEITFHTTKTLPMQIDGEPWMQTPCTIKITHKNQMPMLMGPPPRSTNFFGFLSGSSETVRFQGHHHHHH

[2] = molecular target: T2, human DGKζ (Homo sapiens, UniProt Q13574); test: DGKζ LIPGLO assay (extruded liposome substrate), in vitro DGK inhibition; type: biochemical; conditions: DGKζ liposome (LIPGLO) assay; read-out: DGKz LIPGLO IC50
T2 construct: TVMV protease cleavage site (C); Hexa-His (C); made in house; host or cells: Sf9 insect cells (baculovirus, Bac-to-Bac)
T2 sequence (Q13574 with tags, fused parts or gaps isoform Q13574-4): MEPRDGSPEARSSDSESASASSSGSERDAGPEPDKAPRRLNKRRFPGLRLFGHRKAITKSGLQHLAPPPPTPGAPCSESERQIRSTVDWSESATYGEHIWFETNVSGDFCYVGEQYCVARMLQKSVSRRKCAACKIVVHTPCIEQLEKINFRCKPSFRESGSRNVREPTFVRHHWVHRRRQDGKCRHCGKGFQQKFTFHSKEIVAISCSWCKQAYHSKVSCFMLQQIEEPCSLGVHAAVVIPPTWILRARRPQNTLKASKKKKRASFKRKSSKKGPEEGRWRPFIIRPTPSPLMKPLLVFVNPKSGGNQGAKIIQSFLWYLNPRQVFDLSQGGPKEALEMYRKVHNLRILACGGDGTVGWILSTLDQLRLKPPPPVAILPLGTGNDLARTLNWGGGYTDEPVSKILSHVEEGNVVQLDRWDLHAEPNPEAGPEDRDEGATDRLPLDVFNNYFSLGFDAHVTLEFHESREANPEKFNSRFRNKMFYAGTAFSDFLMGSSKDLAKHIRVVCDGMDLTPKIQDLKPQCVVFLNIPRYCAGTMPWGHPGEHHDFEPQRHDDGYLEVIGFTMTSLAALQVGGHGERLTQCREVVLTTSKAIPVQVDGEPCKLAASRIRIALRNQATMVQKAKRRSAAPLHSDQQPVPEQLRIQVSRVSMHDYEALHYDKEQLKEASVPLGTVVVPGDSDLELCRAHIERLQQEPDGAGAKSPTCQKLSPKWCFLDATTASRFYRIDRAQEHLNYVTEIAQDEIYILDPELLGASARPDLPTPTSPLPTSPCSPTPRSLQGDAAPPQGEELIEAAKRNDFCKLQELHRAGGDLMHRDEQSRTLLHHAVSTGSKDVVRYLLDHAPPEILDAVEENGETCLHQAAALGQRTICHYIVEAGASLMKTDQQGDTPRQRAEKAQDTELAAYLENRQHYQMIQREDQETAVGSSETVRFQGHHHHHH

[3] = test system: Human venous whole blood; test: Human whole blood IFN-γ assay; type: cell-based; conditions: human whole blood, anti-CD3 plus anti-CD28, 24 hours, 3 μM reference compound = 100% activation, read-out: INFg Whole Blood Normalized Agonist EC50;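 also: blood from healthy donors exposed to compound for 1 h before stimulation with anti-CD3 and anti-CD28 at 1 µg/mL each, IFN-γ quantified in supernatant by AlphaLISA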
Protocol: Human Whole Blood IFN-γ Assay
Human venous whole blood (22.5 μL per well), obtained from healthy donors, was pre-treated with compounds for one hour at 37° C. in a humidified 95% air/5% CO2 incubator. The blood was stimulated with 2.5 μL anti-human CD3 and anti-CD28 mAb at a final concentration of 1 μg/mL each for 24 hours at 37° C. IFN-γ in the supernatants was measured using AlphLISA kit (Cat # AL217).

SMILES | IC50 [1] [µM] | IC50 [2] [µM] | EC50 [3] [µM] | EC50 ([3]; Homo sapiens, 24 h) [µM]
CC(c1ccc(C#N)cc1)N1CCN(c2c(C#N)c(=O)n(C)c3ccc(C#N)nc23)C[C@H]1C (stereo partly drawn) [Example 955] | 0.22 | 3 | 20 | –
CC(c1ccc(F)c(F)c1)N1CCN(c2c(C#N)c(=O)n(C)c3ccc(C#N)nc23)C[C@H]1C (stereo partly drawn) [Example 956] | 0.78 | 7.5 | – | 4
Cc1cccc(C(C)N2CCN(c3c(C#N)c(=O)n(C)c4ccc(C#N)nc34)C[C@H]2C)n1 (stereo partly drawn) [Example 964] | 1.9 | 32 | – | 13
Cc1cccc(C(C)N2CCN(c3c(C#N)c(=O)n(C)c4ccc(C#N)nc34)C[C@H]2C)n1 (stereo partly drawn) [Example 967] | 2.8 | 51 | 18 | –
COC(=O)c1ccc(C(C)N2CCN(c3c(C#N)c(=O)n(C)c4ccc(C#N)nc34)C[C@H]2C)cc1 (stereo partly drawn) [Example 981] | 2.1 | 28 | – | 13
C[C@@H]1CN(c2c(C#N)c(=O)n(C)c3ccc(C#N)nc23)CCN1Cc1ccc(F)c(F)c1 [Example 987] | 2.9 | 1.8 | – | 7.3
Cc1cccc(CN2CCN(c3c(C#N)c(=O)n(C)c4ccc(C#N)nc34)C[C@H]2C)n1 [Example 988] | 2.8 | 5.3 | – | 20
C[C@@H]1CN(c2c(C#N)c(=O)n(C)c3ccc(C#N)nc23)CCN1Cc1cccc(C#N)n1 [Example 989] | 5.2 | 32 | – | 20
C[C@@H]1CN(c2c(C#N)c(=O)n(C)c3ccc(C#N)nc23)CCN1Cc1ccccn1 [Example 990] | 0.74 | 25 | – | 20
C[C@@H]1CN(c2c(C#N)c(=O)n(C)c3ccc(C#N)nc23)CCN1Cc1cccc(C(F)(F)F)n1 [Example 991] | 0.31 | 0.8 | – | 11
C[C@@H]1CN(c2c(C#N)c(=O)n(C)c3ccc(C#N)nc23)CCN1Cc1ccc2ccccc2n1 [Example 992] | 1.3 | 3.2 | – | 5.8
C[C@@H]1CN(c2c(C#N)c(=O)n(C)c3ccc(C#N)nc23)CCN1Cc1ccc(F)cc1Cl [Example 993] | 1.3 | 3.9 | – | 3.8
C[C@@H]1CN(c2c(C#N)c(=O)n(C)c3ccc(C#N)nc23)CCN1Cc1ccc(-c2ccccc2)cc1 [Example 994] | 6.4 | 110 | – | 20
Cc1cc(CN2CCN(c3c(C#N)c(=O)n(C)c4ccc(C#N)nc34)C[C@H]2C)ccc1F [Example 995] | 3.2 | 5.6 | – | 2.5
C[C@@H]1CN(c2c(C#N)c(=O)n(C)c3ccc(C#N)nc23)CCN1Cc1ccc(Cl)c(Cl)c1 [Example 996] | 4.1 | 5.8 | – | 20
C[C@@H]1CN(c2c(C#N)c(=O)n(C)c3ccc(C#N)nc23)CCN1Cc1ccccc1Cl [Example 997] | 1.1 | 3.3 | – | 20
Cc1cc(C)cc(CN2CCN(c3c(C#N)c(=O)n(C)c4ccc(C#N)nc34)C[C@H]2C)c1 [Example 1000] | 2.7 | 6.2 | – | 4
Cc1ccc(F)cc1CN1CCN(c2c(C#N)c(=O)n(C)c3ccc(C#N)nc23)C[C@H]1C [Example 1001] | 1.5 | 4.6 | – | 4.7
Cc1ccc(CN2CCN(c3c(C#N)c(=O)n(C)c4ccc(C#N)nc34)C[C@H]2C)cc1F [Example 1002] | 2.7 | 4.7 | – | 5.5
C[C@@H]1CN(c2c(C#N)c(=O)n(C)c3ccc(C#N)nc23)CCN1Cc1cccc(C(F)(F)F)c1 [Example 1003] | 2.8 | 3.9 | – | 20
C[C@@H]1CN(c2c(C#N)c(=O)n(C)c3ccc(C#N)nc23)CCN1Cc1cccc(-c2ccccc2)c1 [Example 1004] | 3.9 | 11 | – | 3.5
C[C@@H]1CN(c2c(C#N)c(=O)n(C)c3ccc(C#N)nc23)CCN1Cc1cccc(F)c1 [Example 1005] | 0.87 | 7.7 | – | 20
Cc1ccc(F)c(CN2CCN(c3c(C#N)c(=O)n(C)c4ccc(C#N)nc34)C[C@H]2C)c1 [Example 1006] | 2.6 | 7 | – | 11
C[C@@H]1CN(c2c(C#N)c(=O)n(C)c3ccc(C#N)nc23)CCN1Cc1ccccc1C#N [Example 1009] | 1.8 | 6.7 | – | 20
Cc1c(F)cccc1CN1CCN(c2c(C#N)c(=O)n(C)c3ccc(C#N)nc23)C[C@H]1C [Example 1010] | 1.8 | 1 | – | 2
